In US11690810B2, “Combination treatment of bacterial infection” (The Chinese University of Hong Kong, priority 2018, dated 2023):

Columns and labels:
[1] = tested on: S. aureus SA-ANT4′ (ANT4), resistant to fusidic acid; test: MIC and checkerboard (FIC) assay; details: for MIC99: read-out: MIC 99.9
[2] = tested on: NorA overexpressed S. aureus; details: NorA overexpressed S. aureus, cited from earlier work
[3] = tested on: bacterial aggregation of MRSA JE-2; test: Aggregation assay of MRSA JE-2; assay type: cell-based, Staphylococcus aureus; details: JE-2; varying concentrations
[4] = tested on: S. aureus SA-1199B (NorA efflux pump overexpressed); test: MIC and checkerboard (FIC) assay; details: for MIC99: read-out: MIC 99.9
[5] = tested on: panel of laboratory MRSA strains; test: MIC and combination tests, panel of laboratory strains; details: tanshinone highest tested concentration 128 μg/ml
[6] = tested on: adherence of MRSA strain JE-2 to fibrinogen; test: Fibrinogen-binding adherence assay (crystal violet); assay type: cell-based, Staphylococcus aureus; details: varying concentrations
[7] = tested on: S. aureus ATCC25923 (methicillin sensitive); test: MIC and checkerboard (FIC) assay; details: Staphylococcus aureus; for MIC90: ATCC25923; for MIC99: ATCC25923, read-out: MIC 99.9
[8] = tested on: S. aureus SA-APH3′ (APH3), resistant to kanamycin; test: MIC and checkerboard (FIC) assay; details: Staphylococcus aureus; for MIC99: read-out: MIC 99.9
[9] = tested on: S. aureus SA-RN4220-pUL5054 (RN4220); test: MIC and checkerboard (FIC) assay; details: Staphylococcus aureus; for MIC99: read-out: MIC 99.9; for MIC: read-out: Activity (MIC, μg/ml)
MRSA SA-ST239 = test: MIC and checkerboard (FIC) assay; details: Staphylococcus aureus, MRSA; for MIC99: read-out: MIC 99.9
[10] = tested on: S. aureus SA-APH2″-AAC6′ (APH2), resistant to gentamicin; test: MIC and checkerboard (FIC) assay; details: Staphylococcus aureus; for MIC99: read-out: MIC 99.9
[11] = tested on: clinical fusidic acid resistant MRSA strain 73621; test: MIC and checkerboard (FIC) assay; assay type: cell-based, Staphylococcus aureus
[12] = tested on: clinical fusidic acid resistant MRSA strain 96591; test: MIC and checkerboard (FIC) assay; assay type: cell-based, Staphylococcus aureus
[13] = tested on: clinical fusidic acid resistant MRSA strain 82356; test: MIC and checkerboard (FIC) assay; assay type: cell-based, Staphylococcus aureus
CA-MRSA strain ST30 = test: MIC and checkerboard (FIC) assay; assay type: cell-based, Staphylococcus aureus; details: Staphylococcus aureus, MRSA, read-out: Activity (MIC, μg/ml)
[14] = tested on: adherence of MRSA strain JE-2 to HaCat keratinocytes; test: Bacterial adherence to HaCaT keratinocytes; assay type: cell-based, Staphylococcus aureus; details: varying concentrations of baicalein
[15] = tested on: internalization of MRSA strain JE-2 by HaCat keratinocytes; test: Internalization of S. aureus by HaCaT keratinocytes; assay type: cell-based, Staphylococcus aureus

| Structure (SMILES) | MIC90 ([1]; Staphylococcus aureus) [µg/mL] | MIC99 ([1]; Staphylococcus aureus) [µg/mL] | MIC90 ([4]; Staphylococcus aureus) [µg/mL] | MIC99 ([4]; Staphylococcus aureus) [µg/mL] | activity against the tested MRSA strains when used alone [5] | MIC90 [7] [µg/mL] | MIC99 [7] [µg/mL] | MIC90 [8] [µg/mL] | MIC99 [8] [µg/mL] | MIC90 [9] [µg/mL] | MIC99 [9] [µg/mL] | MIC90 (MRSA SA-ST239) [µg/mL] | MIC99 (MRSA SA-ST239) [µg/mL] | MIC90 [10] [µg/mL] | MIC99 [10] [µg/mL] | MIC [9] [µg/mL] | further results |
| --- | --- | --- | --- | --- | --- | --- | --- | --- | --- | --- | --- | --- | --- | --- | --- | --- | --- |
| COc1ccc2cc3[n+](cc2c1OC)CCc1cc2c(cc1-3)OCO2 [Berberine] | 256 | > 512 | 256 | > 512 | relatively weak | 256 | > 512 | 128 | > 512 | 256 | > 512 | 256 | > 512 | 256 | > 512 |  | antimicrobial action (MIC) potentiated ([2]; with multidrug pump inhibitor 5′-methoxyhydnocarpin): 2 µg/mL; antimicrobial action (MIC) alone ([2]; without pump inhibitor): 32 µg/mL; bacterial aggregation [3]: reduced; fibrinogen-binding adherence [6]: dose-dependent reduction of adherence |
| C=C(C)C(CC=C(C)C)Cc1c(OC)cc(OC)c(C(=O)/C=C/c2ccc(OCOC)cc2OCOC)c1OC (stereo not shown) [Compound A] |  |  |  |  |  |  |  |  |  |  |  |  |  |  |  | > 256 |  |
| CC(=O)O[C@H]1C[C@@]2(C)[C@@H](C[C@@H](O)[C@H]3[C@@]4(C)CC[C@@H](O)[C@@H](C)[C@@H]4CC[C@@]32C)/C1=C(\CCC=C(C)C)C(=O)O [Fusidic acid, fusidic acid, reference compound] |  |  |  |  |  |  |  |  |  |  |  |  |  |  |  |  | FIC ([1]; ANT4, ECG+Kur+Fus): 0.125; MIC combine ([1]; ANT4, ECG+Kur+Fus): 4 µg/mL; MIC combine ([1]; ANT4, ECG+Kur+Fus, listed as Fus): 8 µg/mL; MIC ([1]; Staphylococcus aureus, read-out: MIC alone): 64 µg/mL; FIC ([11]; 73621, ECG+Kur+Fus): 0.03; MIC combine ([11]; 73621, ECG+Kur+Fus): 1 µg/mL; MIC ([11]; Staphylococcus aureus, MRSA, 73621 (fusidic acid resistant), read-out: MIC alone): 32 µg/mL; FIC ([12]; 96591, ECG+Kur+Fus): 0.03; MIC combine ([12]; 96591, ECG+Kur+Fus): 1 µg/mL; MIC ([12]; Staphylococcus aureus, MRSA, 96591 (fusidic acid resistant), read-out: MIC alone): 32 µg/mL; FIC ([13]; 82356, ECG+Kur+Fus): 0.03; MIC combine ([13]; 82356, ECG+Kur+Fus): 1 µg/mL; MIC ([13]; Staphylococcus aureus, MRSA, 82356 (fusidic acid resistant), read-out: MIC alone): 32 µg/mL |
| C=C(C)C(CC=C(C)C)Cc1c(OC)cc(OC)c(C(=O)/C=C/c2ccc(O)cc2O)c1OC (stereo not shown) [Compound B] |  |  |  |  |  |  |  |  |  |  |  |  |  |  |  | 64 |  |
| O=C(O)c1cc(O)c(O)c(O)c1 [Gallic acid, 3,4,5-trihydroxybenzoic acid] | 512 | > 512 | 512 | > 512 | relatively weak | 256 | > 512 | 512 | > 512 | 512 | > 512 | 256 | > 512 | 512 | > 512 |  |  |
| C=C(C)C(CC=C(C)C)Cc1c(OC)cc(OC)c(C(=O)/C=C/c2ccc(O)cc2)c1OC (stereo not shown) [WQD-101] |  |  |  |  |  |  |  |  |  |  |  |  |  |  |  | > 256 | MIC (MRSA SA-ST239; read-out: Activity (MIC, μg/ml)): > 256 µg/mL; MIC (CA-MRSA strain ST30): > 256 µg/mL |
| O=c1cc(-c2ccccc2)oc2cc(O)c(O)c(O)c12 [Baicalein, 5,6,7-trihydroxyflavone] | 128 | > 512 | 128 | > 512 | relatively weak | 128 | > 512 | 64 | > 512 | 64 | > 512 | 128 | > 512 | 128 | > 512 |  | bacterial aggregation [3]: reduced; FIC ([4]; 1199B, Baicalein with ECG): 0.0625; MIC combine ([4]; 1199B, Baicalein with ECG): 8 µg/mL; MIC ([4]; Staphylococcus aureus, read-out: MIC alone, 1199B, Baicalein and ECG section): 512 µg/mL; fibrinogen-binding adherence [6]: minimal reduction in adherence; average decrease in the adherence of the WT strain to HaCaT cells [14]: 3.5 fold; decrease in the internalization as compared to the WT strain ([15]; 4 μg/ml (baicalein)): 2.7 fold; internalization lower as compared to the mutant ΔSrtA ([15]; 64 μg/ml of baicalein): 1.9 fold; reduction in internalization as compared to the WT strain ([15]; 64 μg/ml of baicalein): 5 fold |
